Values after ≈ are worked out from the molar mass of the structure shown. “Also recorded” adds a separate entry of the source. Where two headings read alike, the source gives them in different places.
Columns and labels:
Pseudomonas aeruginosa = assay: Checkerboard synergy assay with LpxCi-4; format: cell-based; conditions: combination with LpxCi-4 (3936), Pseudomonas aeruginosa (ATCC27853 in text)
Text: (§1) One classic method for assessing synergy, referred to as the checkerboard assay, is used to predict the efficacy of antibacterial agents, and is described by Scribner et. al., (Antimicrobial Agents and Chemotherapy 21(6):939-943 (1982)) and in Goodman & Gilman (The Pharmacological Basis of Therapeutics, Sixth Edition, pp. 1097-1098 (1980)). The checkerboard assay involves serial two-fold dilutions of the antibiotics individually and in combination in broth, which is then inoculated with the microorganism to be tested. After incubation, the minimum inhibitory concentration (MIC) of each drug used individually and in combination is determined (N.B., the MIC is the lowest concentration of the drug that inhibits growth in the medium). Synergism is indicated by a decrease in the MIC of each drug when used in combination. Antagonism is indicated by an increase in the MIC of either or both drugs when used in combination. Alternate methods of assessing synergy are reviewed in Greco, et al., Pharmacological Reviews 47(2):[…] (1995), incorporated herein by reference in its entirety.
(§2) Partial or full inhibition of LpxC should compromise the outer membrane and thus allow these synergizing agents to enter the cells and exert an antibacterial effect at concentrations where cells untreated with an LpxC inhibitor are unaffected. As a first step, checkerboard synergy assays for a variety of antibacterial agents were perform with several LpxC inhibitors, on several species of gram negative bacteria.
(§3) Bacterial isolates were cultivated from −70° C. frozen stocks of the indicated strains by overnight passages at 35° C. in ambient air on Mueller-Hinton agar (Beckton Dickinson, Franklin Lakes, N.J.). Minimum Inhibitory Concentrations (MICs) were determined by the broth microdilution method in accordance with the Clinical and Laboratory Standards Institute (CLSI) guidelines. In brief, organism suspensions were adjusted to a 0.5 McFarland standard to yield a final inoculum between 3×10^5 and 7×10^5 colony-forming units (CFU)/mL. Drug dilutions and inocula were made in sterile, cation adjusted Mueller-Hinton Broth (Beckton Dickinson). An inoculum volume of 100 μL was added to wells containing 100 μL of broth with 2-fold serial dilutions of drug. All inoculated microdilution trays were incubated in ambient air at 35° C. for 18-24 hours. Following incubation, the lowest concentration of the drug that prevented visible growth (OD600 nm <0.05) was recorded as the MIC.
(§4) Standard checkerboard assays were performed with a combination of the indicated agents and LpxCi-4. Table 2 provides the FICI calculated according to standard techniques.

Klebsiella pneumoniae = assay: Checkerboard synergy assay with LpxCi-4; format: cell-based; conditions: combination with LpxCi-4
Text: as §1, §2, §3, §4

Yersinia enterocolitica = assay: Checkerboard synergy assay with LpxCi-4; format: cell-based; conditions: combination with LpxCi-4
Text: as §1, §2, §3, §4

[1] = tested on: P. aeruginosa (ATCC27853); conditions: for ΔLogCFU vs 24 hr / Log CFU Mean: 24 hr; for Log CFU Mean: n=5
Text: (§5) The model was run essentially as described by Craig and others (see Gudmundsson et al., “Murine Thigh Infection Model,” Handbook of Animal Models of Infection, M. A. Sande and O. Zak, Eds.; London: Academic Press, 1999, pp 137-144). Briefly, mice were rendered neutropenic prior to infection with 2 doses of cyclophosphamide, and then infected intramuscularly in the thigh with inocula of 10^3-10^5 CFU of either K. pneumo. (ATCC43816) or P. aeruginosa (ATCC27853). Antibiotics or vehicle alone as a negative control were administered twice at 2 hrs and 14 hrs post-infection. The animals were kept neutropenic for the duration of the experiment in order to minimize the effect of white blood cells on the infection such that the microbiological readout measures the in vivo interaction of drugs and bacteria. At 24 hrs post-infection, thighs were harvested, homogenized, and plated to measure the number of CFUs surviving per thigh. Thighs from a subset of animals were also harvested 2 hrs post-infection to record the CFUs present just prior to the first antibiotic treatment (pre-treatment).
This table focuses on the sensitive part of the LpxCi-4 dose response curve (30 mg/kg) by examining the mean log CFU at 0 or 24 hours, as well as the log change in CFU at 24 hours relative to zero hours (“ΔLogCFU vs […]”). Data is given for animals treated with vehicle, LpxCi-4 at 30 mg/kg, a second agent alone at the indicated doses or the combination of LpxCi-4 at 30 mg/kg plus the second agent at the indicated dose. The standard errors for each measurement are also given (n=5 animals/group). By comparing the observed drop in CFU of the combination with the sum of the drop in CFU associated with each of the two agents given separately, one can determine whether the combination is, in fact, synergistic in vivo.

E. coli ATCC25922 = assay: MIC by broth microdilution, wild type strain ATCC25922; format: cell-based
Procedure: as §3

envA+ (D21) E. coli = assay: MIC by broth microdilution, isogenic envA+ strain; format: cell-based
Procedure: as §3

envA1 (D22) E. coli = assay: MIC by broth microdilution, isogenic envA1 mutant strain; format: cell-based; conditions: for MIC: Strain envA1 (D21); for Fold decrease in MIC (envA+/envA1): envA+ vs envA1 E. coli
Procedure: as §3

gram negative bacteria = assay: Checkerboard synergy score at fractions of the antibacterial agent's MIC, with LpxCi-1, -2, -3; format: cell-based; design: scale not given here
Procedure: as §2, §3

K. pneumo. (ATCC43816) = assay: Neutropenic thigh in vivo efficacy model (mice); design: species or system Klebsiella pneumoniae; conditions: K. pneumo. (ATCC43816); summary
Text: as §5

[2] = second block of Table 5, mg/kg/day b.i.d.: 3936 30, Eryth. 60, Dapto. 3, Oxacil. 100
[3] = first block of Table 5, mg/kg/day b.i.d.: 3936 30, Rif. 30, Azith. 50

Row | Compound | FICI index (Pseudomonas aeruginosa) | FICI index (Klebsiella pneumoniae) | FICI index (Yersinia enterocolitica) | MIC (E. coli ATCC25922) | MIC (envA+ (D21) E. coli) | MIC (envA1 (D22) E. coli) | further results
1 | CO/N=C(\C(=O)N[C@@H]1C(=O)N2C(C(=O)O)=C(COC(C)=O)CS[C@H]12)c1csc(N)n1 [Cefotaxime, cefotaxime] | ≦1.0 | 0.5 | ≦0.5 |  |  |  | 
2 | Nc1nc(/C(=N/O)C(=O)N[C@@H]2C(=O)N3C(C(=O)O)=C(/C=C4\CCN([C@@H]5CCNC5)C4=O)CS[C@H]23)ns1 [Ceftobioprole] | 0.5 | 0.63 | 0.5 |  |  |  | 
3 | CCC[C@@H]1C[C@@H](C(=O)N[C@@H]([C@H]2O[C@H](SC)[C@H](O)[C@@H](O)[C@H]2O)[C@H](C)Cl)N(C)C1 [Clindamycin, clindamycin] | no effect | ≦0.5 | 0.13 |  |  |  | 
4 | CCCCCCCCCC(=O)N[C@@H](Cc1c[nH]c2ccccc12)C(=O)N[C@H](CC(N)=O)C(=O)N[C@@H](CC(=O)O)C(=O)N[C@@H]1C(=O)NCC(=O)N[C@@H](CCCN)C(=O)N[C@@H](CC(=O)O)C(=O)N[C@H](C)C(=O)N[C@@H](CC(=O)O)C(=O)NCC(=O)N[C@H](CO)C(=O)N[C@@H]([C@H](C)CC(=O)O)C(=O)N[C@@H](CC(=O)c2ccccc2N)C(=O)O[C@@H]1C [Daptomycin, daptomycin] | no measurable synergy; also recorded: no effect | no measurable synergy; also recorded: no effect |  | > 256 µg/mL | 256 µg/mL (≈ 158 µM) | 32 µg/mL (≈ 19.7 µM) | ΔLogCFU vs 24 hr [1, 2]: −1.04; Log CFU Mean [1, 2]: 6.6; Fold decrease in MIC (envA+/envA1) (envA1 (D22) E. coli): 8; MIC shift due to modification of envA (envA1 (D22) E. coli; isogenic envA1 (D22) vs envA+ (D21) E. coli): 8 ×
5 | C[C@H]1COc2c(N3CCN(C)CC3)c(F)cc3c(=O)c(C(=O)O)cn1c23 [Levofloxacin] | no effect | 0.5 | 0.63 |  |  |  | 
6 | CC(=O)NC[C@H]1CN(c2ccc(N3CCOCC3)c(F)c2)C(=O)O1 [Linezolid, linezolid] | no effect | ≦0.5 |  |  |  |  | Synergy Score (gram negative bacteria; with LpxCi-1, antibacterial agent at 1/16 MIC): 0.46; Synergy Score (gram negative bacteria; with LpxCi-1, antibacterial agent at 1/64 MIC): 1.03; Synergy Score (gram negative bacteria; with LpxCi-1, antibacterial agent at ¼ MIC): 0.54; Synergy Score (gram negative bacteria; with LpxCi-2, antibacterial agent at ¼ MIC): 1.25; Synergy Score (gram negative bacteria; with LpxCi-3, antibacterial agent at 1/16 MIC): 1.06; Synergy Score (gram negative bacteria; with LpxCi-3, antibacterial agent at 1/64 MIC): 1.02; Synergy Score (gram negative bacteria; with LpxCi-3, antibacterial agent at ¼ MIC): 0.58
7 | CO[C@H]1/C=C/O[C@@]2(C)Oc3c(C)c(O)c4c(O)c(c(/C=N/N5CCN(C)CC5)c(O)c4c3C2=O)NC(=O)/C(C)=C\C=C\[C@H](C)[C@H](O)[C@@H](C)[C@@H](O)[C@@H](C)[C@H](OC(C)=O)[C@@H]1C [Rifampin, rifampin] | ≦1.0 | ≦0.08 | 0.19 | 16 µg/mL (≈ 19.4 µM) | 16 µg/mL (≈ 19.4 µM) | 0.25 µg/mL (≈ 0.304 µM) | in vivo synergy with multiple LpxC inhibitors (K. pneumo. (ATCC43816)): surprising in vivo synergy; ΔLogCFU vs 24 hr [1, 3]: −0.28; Log CFU Mean [1, 3]: 7.46; in vivo synergy with LpxC inhibitors ([1]; P. aeruginosa (ATCC27853), summary): surprising in vivo synergy; drop in CFU relative to vehicle ([1]; each agent at 30 mg/kg): 0.28 log; FICI index (Pseudomonas aeruginosa; listed as rifampin): < 1.0
8 | gentamicin | 0.38 | 0.75 | 0.5 |  |  |  | 
9 | teicoplanin | no effect | ≦0.37 | ≦0.25 | > 256 µg/mL | > 256 µg/mL | 32 µg/mL | Fold decrease in MIC (envA+/envA1) (envA1 (D22) E. coli): ≧8
